Assays:
BV-2 [1] = test: Cytotoxicity in mouse BV2 cells by MTT assay; format: cell-based
BV-2 [2] = test: Inhibition of lipopolysaccharide-induced nitric oxide production in mouse BV2 cells assessed as reduction in nitrite level by Griess reaction based ELISA; format: functional, cell-based
BV-2 [3] = test: Inhibition of lipopolysaccharide-induced nitric oxide production in mouse BV2 cells assessed as reduction in nitrite level at 60 uM by Griess reaction based ELISA; format: functional
Microglia [4] = test: Inhibition of lipopolysaccharide-induced TNFalpha production in Sprague-Dawley rat primary microglia cells pre-incubated for 1 hr before LPS stimulation for 24 hrs by ELISA; format: functional, cell-based
BV-2 [5] = test: Inhibition of lipopolysaccharide-induced IL6 production in mouse BV2 cells pre-incubated for 1 hr before LPS stimulation for 24 hrs by ELISA; format: functional, cell-based
BV-2 [6] = test: Inhibition of lipopolysaccharide-induced PGE2 production in mouse BV2 cells pre-incubated for 1 hr before LPS stimulation for 24 hrs; format: functional, cell-based
Microglia [7] = test: Inhibition of lipopolysaccharide-induced iNOS protein expression in Sprague-Dawley rat primary microglia cells pre-incubated for 3 hrs before LPS stimulation by Western blot method; format: functional, cell-based
Microglia [8] = test: Inhibition of lipopolysaccharide-induced IL6 production in Sprague-Dawley rat primary microglia cells pre-incubated for 1 hr before LPS stimulation for 24 hrs by ELISA; format: functional, cell-based
Microglia [9] = test: Inhibition of lipopolysaccharide-induced nitric oxide production in Sprague-Dawley rat primary microglia cells assessed as reduction in nitrite level by Griess reaction based ELISA; format: functional, cell-based
BV-2 [10] = test: Inhibition of lipopolysaccharide-induced COX2 protein expression in mouse BV2 cells pre-incubated for 3 hrs before LPS stimulation by Western blot method; format: functional, cell-based
Microglia [11] = test: Inhibition of lipopolysaccharide-induced COX2 protein expression in Sprague-Dawley rat primary microglia cells pre-incubated for 3 hrs before LPS stimulation by Western blot method; format: functional, cell-based
BV-2 [12] = test: Inhibition of lipopolysaccharide-induced IL-1beta production in mouse BV2 cells pre-incubated for 1 hr before LPS stimulation for 24 hrs by ELISA; format: functional, cell-based
Microglia [13] = test: Inhibition of lipopolysaccharide-induced PGE2 production in Sprague-Dawley rat primary microglia cells pre-incubated for 1 hr before LPS stimulation for 24 hrs; format: functional, cell-based
BV-2 [14] = test: Inhibition of lipopolysaccharide-induced iNOS protein expression in mouse BV2 cells pre-incubated for 3 hrs before LPS stimulation by Western blot method; format: functional, cell-based
Microglia [15] = test: Inhibition of lipopolysaccharide-induced IL-1beta production in Sprague-Dawley rat primary microglia cells pre-incubated for 1 hr before LPS stimulation for 24 hrs by ELISA; format: functional, cell-based
BV-2 [16] = test: Inhibition of lipopolysaccharide-induced TNFalpha production in mouse BV2 cells pre-incubated for 1 hr before LPS stimulation for 24 hrs by ELISA; format: functional, cell-based

IC50 (BV-2 [2]) | Compound | Activity (BV-2 [1]) | inhibition at 60 µM (BV-2 [3]) | inhibition (BV-2 [2]) | further results
> 60 µM | CC(C)C1CC[C@@](C)(O)[C@@H]2CC[C@](C)(O)[C@H]2[C@@H]1O (stereo partly drawn) | Non-Toxic | 34% | – | –
2.43 µM | C[C@@H]1C[C@H](O)C=C2C(=O)C=C[C@@H](O)[C@]21C [NARCHINOL B] | Non-Toxic | – | Dose-dependent effect | IC50 (Microglia [4]): 9.83 µM; IC50 (BV-2 [5]): 2.9 µM; IC50 (BV-2 [6]): 2.38 µM; inhibition (Microglia [7]): Dose-dependent effect; IC50 (Microglia [8]): 4 µM; IC50 (Microglia [9]): 4.17 µM; inhibition (BV-2 [10]): Dose-dependent effect; inhibition (Microglia [11]): Dose-dependent effect; IC50 (BV-2 [12]): 1.73 µM; IC50 (Microglia [13]): 3.1 µM; inhibition (BV-2 [14]): Dose-dependent effect; IC50 (Microglia [15]): 3.11 µM; IC50 (BV-2 [16]): 1.7 µM
27.8 µM | C=C1COC(=O)[C@H]2[C@@H]1C[C@H](O)[C@@]2(C)O [JATAMANIN A] | Non-Toxic | – | Dose-dependent effect | –
46.5 µM | C[C@@H]1C[C@@H](O)C=C2C(=O)C=C[C@@H](C(C)(C)O)[C@]21C | Non-Toxic | – | Dose-dependent effect | –
> 60 µM | CC(C)[C@]1(O)CC[C@@]2(C)[C@H](O)CC[C@](C)(O)[C@@H]2C1 | Non-Toxic | 28.4% | – | –
3.48 µM | C[C@@H]1CCC=C2C(=O)C=C[C@@H](O)[C@]21C | Non-Toxic | – | Dose-dependent effect | IC50 (Microglia [4]): 3.18 µM; IC50 (BV-2 [5]): 3.57 µM; IC50 (BV-2 [6]): 2.05 µM; inhibition (Microglia [7]): Dose-dependent effect; IC50 (Microglia [8]): 3.62 µM; IC50 (Microglia [9]): 4.96 µM; inhibition (BV-2 [10]): Dose-dependent effect; inhibition (Microglia [11]): Dose-dependent effect; IC50 (BV-2 [12]): 2.04 µM; IC50 (Microglia [13]): 5.33 µM; inhibition (BV-2 [14]): Dose-dependent effect; IC50 (Microglia [15]): 5.84 µM; IC50 (BV-2 [16]): 2.11 µM
– | CC(C)(O)C[C@@H]1CC[C@]2(C)[C@@H](O)CC[C@@](C)(O)[C@@H]12 | Non-Toxic | 39% | Dose-dependent effect | –
30.5 µM | C[C@@H]1C[C@H](O)C=C2C(=O)C=C[C@@H](C(C)(C)O)[C@]21C | Non-Toxic | – | Dose-dependent effect | –
> 60 µM | C=C1[C@@H]2O[C@@H](OC)[C@H]3[C@@H]1C[C@H](O)[C@]3(C)O2 | Non-Toxic | 39.7% | – | –

Reference: ChEMBL document CHEMBL4177732, “Anti-neuroinflammatory effects of sesquiterpenoids isolated from Nardostachys jatamansi” (Bioorg Med Chem Lett, 2018)
